# Results taken from patent US20240270748A1 (Merck Patent GmbH, priority 2021, published 2024).
# Columns and labels:
# YAP-TEAD interaction = assay: SK-HEP-1 reporter assay (8xTEAD responsive elements driving NanoLuc luciferase); assay type: cell-based; settings: Homo sapiens, SK-HEP1, SK-HEP-1 reporter assay
# Procedure, shortened: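 SK-HEP-1 cells stably carrying 8×TEAD-driven NanoLuc treated in duplicate, 10-point dose from 30 μM final, 0.3% DMSO, 24 h at 37° C. Luminescence after NanoGlo lysis/substrate addition; IC50 calculated from dose response.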
# NCI-H226 cells = assay: Viability assay in NCI-H226 (Yap-dependent) cells, CyQuant; assay type: cell-based, human; settings: Homo sapiens, NCI-H226, 96 h
# Procedure, shortened: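 Seeded cells were dosed 24 h later in duplicate (10-point, 1:3 dilutions, top 30 μM final, 0.3% DMSO) and incubated 96 h at 37 °C. Viability was read with CyQUANT DNA dye after 1 h, fluorescence bottom read. NCI-H226 in RPMI 1640 medium; SW620 YAP/TAZ CRISPR knockout in DMEM/F-12 medium.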
# SW620 Yap KO cells = assay: Viability assay in SW620 Yap KO (Yap independent) cells, CyQuant; assay type: cell-based; settings: Homo sapiens, SW-620, 96 h
# Description: Viability Assay in NCI-H226 (Yap-Dependent) and SW620 Yap KO (Yap Independent) Cells
# The ability of YAP-TEAD inhibitors to inhibit tumor cell growth was evaluated using two different cell lines: NCI-H226, which is a YAP dependent cell line, and SW620 cells, where YAP and TAZ were knocked out using CRISPR to generate a YAP independent cell line.
# For the assay, cells were treated in duplicates with the test compounds in a 10-point dose, 1:3 dilution steps, with the top concentration starting at 30 μM (final concentration in assay). After a 96 hour incubation at 37° C., 95% rH, and 5% CO2, a cell-permeant DNA-binding dye that stains only healthy cells (CyQUANT®, Promega) was added to the cells, allowing the quantification of cell viability.
# Cell Media: The NCI-H226 cells were cultured in the following media: RPMI 1640, +10% FBS, +1× GlutaMAX, +10 mM HEPES, +0.5% Pen/Strep. The SW620-KO cells were cultured in the following media: DMEM/F-12, +10% FBS, +1× GlutaMAX, +10 mM HEPES, +0.5% Pen/Strep.
# Reagents: The reagents used are listed below:
# Cell culture: The cells were examined using an inverted microscope to check for health, cell density, etc. To dissociate adherent cells, the monolayer of cells was washed once with pre-warmed PBS. After removing the PBS, 3 ml pre-warmed Accutase was added to a F75 flask, dispersed evenly and the flask was allowed to sit in incubator for ˜4-5 minutes.
# When a single cell suspension was obtained, 7 ml of prewarmed growth media was added and resuspended with the cells. The cell suspension was transferred to a sterile 15 ml conical centrifuge tube, and spun for 5 min at 300×g, RT. The supernatant was discarded and the pellet was resuspended in 10 ml of pre-warmed growth media.
# The total cell count was determined, and 20 μl of the desired cell number was added to each well of a 384 well plate using a Multidrop Combi. The plates were then incubated for 24 hours at 37° C., 95% rH, and 5% CO2.
# Compound treatment: 24 hours after seeding, the cells were treated with compounds.
# A 1:333 dilution of compounds, diluted in DMSO, was made to get a final concentration of 0.3% DMSO per well. To transfer the compounds to the assay plate, […] was shot from Labcyte low dead volume plates to the cell plates containing 20 μl media/well with the ECHO 555 liquid handling system.
# After treatment, the cells were fed with 20 μl fresh pre-warmed assay media using a Multidrop combi.
# The assay plates were then incubated for 96 h at 37° C., 95% rH, and 5% CO2.
# 96 h after treatment 30 μl of CyQuant® reagent was added to the assay plates using a Multidrop combi in the dark. The plates were then incubated for 1 hour at 37° C., 95% rH and 5% CO2. Thereafter, the assay plates were removed from the incubator and allowed to equilibrate to RT for 30 min in the dark without lid. Finally, they were measured using an EnVision microplate reader with a FITC bottom read program.
# [1] = n.d. = value not detectable below threshold given in parentheses, ND = not determinable within the entire range
Compound,IC50 (YAP-TEAD interaction; class symbols) [nM],IC50 (NCI-H226 cells; class symbols) [nM],IC50 (SW620 Yap KO cells; [1]) [nM],IC50 (YAP-TEAD interaction; [1]) [nM],IC50 (NCI-H226 cells; n.d. = value not detectable below threshold given in parentheses) [nM],IC50 (SW620 Yap KO cells; class symbols) [nM]
"Cc1snc2c1c1cc(C(=O)N=S(C)(=O)CCCO)ccc1n2-c1ccc(C(F)(F)F)cc1 (stereo not drawn) [Example C16, N-[(3-hydroxypropyl)(methyl) οχο-λ6-sulfanylidene]-3-methyl-8-[4-(trifluoromethyl)phenyl]-8H-[1,2]thiazolo[3,4-b]indole-5-carboxamide]",10 to 100,1 to 100,> 3000,,,
"Cn1cc2c3cc(C4CC(Cl)=NO4)ccc3n(-c3ccc(C(F)(F)F)cc3)c2n1 (stereo not drawn) [Example C17, 3-chloro-5-{2-methyl-8-[4-(trifluoromethyl)phenyl]-2H,8H-pyrazolo[3,4-b]indol-5-yl}-4,5-dihydro-1,2-oxazole]",10 to 100,1 to 100,> 30000,,,
"Cn1nc2c3cc(C4CC(Cl)=NO4)ccc3n(-c3ccc(C(F)(F)F)cc3)c2n1 (stereo not drawn) [Example C18, 3-chloro-5-{2-methyl-4-[4-(trifluoromethyl)phenyl]-2H,4H-[1,2,3]triazolo[4,5-b]indol-7-yl}-4,5-dihydro-1,2-oxazole]",10 to 100,1 to 100,> 30000,,,
"CN(c1ccc2c(c1)c1cn(C)nc1n2-c1ccc(C(F)(F)F)cc1)S(C)(=O)=O [Example C20, N-methyl-N-{2-methyl-8-[4-(trifluoromethyl)phenyl]-2H,8H-pyrazolo[3,4-b]indol-5-yl}methanesulfonamide]",10 to 100,1 to 100,> 30000,,,
"Cn1cc2c3cc(NC(=O)c4ccncc4)ccc3n(-c3ccc(C(F)(F)F)cc3)c2n1 [Example C21, N-{2-methyl-8-[4-(trifluoromethyl)-phenyl]-2H,8H-pyrazolo[3,4-b]indol-5-yl}pyridine-4-carboxamide]",,100 to 1000,> 3000,> 1000,,
"Cn1nc2c3cc(C(=O)N=S(C)(=O)CCCO)ccc3n(-c3ccc(C(F)(F)F)cc3)c2n1 (stereo not drawn) [Example C25, N-[(3-hydroxypropyl)(methyl)oxo -¿6-sulfanylidene]-2-methyl-4-[4-(trifluoromethyl)phenyl]-2H,4H-[1,2,3]triazolo[4,5-b]indole-7-carboxamide]",10 to 100,1 to 100,> 30000,,,
"Cn1cc2c3cc(C(=O)O)ccc3n(C34CC(C(F)(F)F)(C3)C4)c2n1 [Example C28, 2-methyl-8-[3-(trifluoromethyl)-bicyclo[1.1.1]pentan-1-yl]-2H,8H-pyrazolo[3,4-b]indole-5-carboxylic acid]",10 to 100,,> 30000,,> 10000,
"Cc1snc2c1c1cc(C(=O)N=S(C)(=O)CCO)ccc1n2-c1ccc(C(F)(F)F)cc1 (stereo not drawn) [Example C30, N-[(2-hydroxyethyl)(methyl)oxo-¿6-sulfanylidene]-3-methyl-8-[4-(trifluoromethyl)phenyl]-8H-[1,2]thiazolo[3,4-b]indole-5-carboxamide]",10 to 100,1 to 100,> 3000,,,
"Cn1nc2c3cc(C(=O)N=S(C)(=O)CCO)ccc3n(-c3ccc(C(F)(F)F)cc3)c2n1 (stereo not drawn) [Example C31, N-[(2-hydroxyethyl)(methyl)oxo-A6-sulfanylidene]-2-methyl-4-[4-(trifluoromethyl)phenyl]-2H,4H-[1,2,3]triazolo[4,5-b]indole-7-carboxamide]",10 to 100,1 to 100,> 30000,,,
"O=C(O)c1ccc2c(c1)c1cn(C(F)(F)F)nc1n2-c1ccc(C(F)(F)F)cc1 [Example C35, 2-(trifluoromethyl)-8-[4-(trifluoromethyl)phenyl]-2H,8H-pyrazolo[3,4-b]indole-5-carboxylic acid]",10 to 100,1000 to 10000,> 30000,,,
"Cc1snc2c1c1cc(C(=O)NC3CC3)ccc1n2-c1ccc(C(F)(F)F)cc1 [Example C41, N-cyclopropyl-3-methyl-8-[4-(trifluoromethyl)phenyl]-8H-[1,2]thiazolo [3,4-b]indole-5-carboxamide]",10 to 100,1 to 100,> 30000,,,
"Cc1snc2c1c1cc(C(=O)NCc3ccccn3)ccc1n2-c1ccc(C(F)(F)F)cc1 [Example C42, 3-methyl-N-[(pyridin-2-yl)methyl]-8-[4-(trifluoromethyl)phenyl]-8H-[1,2]thiazolo[3,4-b]indole-5-carboxamide]",10 to 100,1 to 100,> 30000,,,
"C[C@@H](CCN(C)C(=O)c1ccc2c(c1)c1cn(C)nc1n2-c1ccc(C(F)(F)F)cc1)NC(=O)c1ccc2c(c1)c1cn(C)nc1n2-c1ccc(C(F)(F)F)cc1 [Example C48, N,2-dimethyl-N-[(3S)-3-({2-methyl-8-[4-(trifluoromethyl)phenyl]-2H,8H-pyrazolo[3,4-b]indol-5-yl}formamido)butyl]-8-[4-(trifluoromethyl)phenyl]-2H,8H-pyrazolo[3,4-b]indole-5-carboxamide]",100 to 10000,1000 to 10000,> 3200,,,
"Cn1cc2c3cc(C4CC(Oc5cncnc5)=NO4)ccc3n(-c3ccc(C(F)(F)F)cc3)c2n1 (stereo not drawn) [Example C50, 5-[(5-{2-methyl-8-[4-(trifluoromethyl)phenyl]-2H,8H-pyrazolo[3,4-b]indol-5-yl}-4,5-dihydro-1,2-oxazol-3-yl)oxy]pyrimidine]",100 to 10000,100 to 1000,> 30000,,,
"CNC(=O)c1ccc2c(c1)c1c(C)snc1n2-c1ccc(C(F)(F)F)cc1 [Example C51, N,3-dimethyl-8-[4-(trifluoromethyl)phenyl]-8H-[1,2]thiazolo[3,4-b]indole-5-carboxamide]",10 to 100,1 to 100,,,,1000 to 10000
"Cc1snc2c1c1cc(C(=O)NCC(C)(C)O)ccc1n2-c1ccc(C(F)(F)F)cc1 [Example C52, N-(2-hydroxy-2-methylpropyl)-3-methyl-8-[4-(trifluoromethyl)phenyl]-8H-[1,2]thiazolo[3,4-b]indole-5-carboxamide]",10 to 100,1 to 100,> 3200,,,
"Cn1cc2c3cc(C(=O)NCc4ccccc4)ccc3n(-c3ccc(C(F)(F)F)cc3)c2n1 [Example C56, N-benzyl-2-methyl-8-[4-(trifluoromethyl)phenyl]-2H,8H-pyrazolo[3,4-b]indole-5-carboxamide]",10 to 100,1 to 100,> 30000,,,
"Cn1cc2c3cc(S(=O)(=O)NCCO)ccc3n(-c3ccc(C(F)(F)F)cc3)c2n1 [Example C57, N-(2-hydroxyethyl)-2-methyl-8-[4-(trifluoromethyl)phenyl]-2H,8H-pyrazolo[3,4-b]indole-5-sulfonamide]",10 to 100,1000 to 10000,> 30000,,,
"Cc1snc2c1c1cc(C(=O)NCc3ccncc3)ccc1n2-c1ccc(C(F)(F)F)cc1 [Example C62, 3-methyl-N-[(pyridin-4-yl)methyl]-8-[4-(trifluoromethyl)phenyl]-8H-[1,2]thiazolo[3,4-b]indole-5-carboxamide]",10 to 100,1 to 100,> 3200,,,
"Cc1snc2c1c1cc(C(=O)NCc3ccncn3)ccc1n2-c1ccc(C(F)(F)F)cc1 [Example C64, 3-methyl-N-[(pyrimidin-4-yl)methyl]-8-[4-(trifluoromethyl)phenyl]-8H-[1,2]thiazolo[3,4-b]indole-5-carboxamide]",10 to 100,1 to 100,> 3200,,,
